Source: patent US20240207243A1, “METHOD OF TREATING LAMINOPATHIES” (Eiger Biopharmaceuticals, Inc., priority 2019, published 2024)
Entries after “also recorded” stand apart in the source; their conditions may differ.

Tests used:
[1] = biological target: T1, CYP2C19 (Homo sapiens, UniProt P33261); test: Drug-drug interaction study: multiple-dose LNF on PK of single-dose omeprazole; assay type: in vivo; set-up: single-dose omeprazole, a sensitive CYP2C19 substrate; endogenous in cells; host or cells: study subjects in vivo; settings: for CYP2C19 inhibition in vivo (classification): lonafarnib 75 mg twice daily, omeprazole probe
T1 sequence (P33261 whole entry): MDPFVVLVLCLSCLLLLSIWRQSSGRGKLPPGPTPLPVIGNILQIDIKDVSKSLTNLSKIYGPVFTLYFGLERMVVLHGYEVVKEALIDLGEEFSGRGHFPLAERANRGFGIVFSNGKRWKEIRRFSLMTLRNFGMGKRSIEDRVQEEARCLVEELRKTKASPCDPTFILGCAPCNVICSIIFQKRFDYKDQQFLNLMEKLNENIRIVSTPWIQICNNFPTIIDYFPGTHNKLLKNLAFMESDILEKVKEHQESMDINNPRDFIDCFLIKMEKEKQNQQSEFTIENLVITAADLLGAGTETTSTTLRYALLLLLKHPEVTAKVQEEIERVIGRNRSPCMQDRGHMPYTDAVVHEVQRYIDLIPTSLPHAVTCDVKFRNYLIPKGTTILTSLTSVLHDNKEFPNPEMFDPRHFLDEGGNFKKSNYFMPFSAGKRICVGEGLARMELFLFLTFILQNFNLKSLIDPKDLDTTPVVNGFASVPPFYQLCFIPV
Description: (§1) This study was conducted as an open-label, drug-drug interaction (DDI) study, a food-effect study with LNF alone, and a food-effect study with LNF+ritonavir (RTV). This study assessed the effects of multiple-dose LNF (75 mg twice daily×5 days) on the PK of single dose omeprazole (1×40-mg capsule) relative to omeprazole alone in.

[2] = Safety and tolerability in loperamide interaction study
[3] = tested on: CYP3A
[4] = tested on: cytochrome P450 CYP3A; test: Drug-drug interaction study: multiple-dose lonafarnib on pharmacokinetics of single-dose midazolam
From the text: (§2) An open-label, single-center, two-period, single-sequence, multi-drug-drug interaction study to evaluate the effects of multiple-dose lonafarnib on the pharmacokinetics of single-dose midazolam, a sensitive cytochrome p450-3a substrate.
(§3) Given the profound increase, sensitive substrates of CYP3A should be contraindicated with lonafarnib.

[5] = tested on: CYP3A; test: as above; settings: human, in vivo, 100 mg
From the text: as §2, §3

[6] = tested on: CYP3A; test: Co-administration of lonafarnib with ketoconazole, a strong CYP3A inhibitor; assay type: in vivo, human; settings: co-administered with ketoconazole 200 mg twice daily
[7] = biological target: P-gp (Homo sapiens, UniProt P08183); settings: in vivo
Chain of P-gp (P08183 whole entry): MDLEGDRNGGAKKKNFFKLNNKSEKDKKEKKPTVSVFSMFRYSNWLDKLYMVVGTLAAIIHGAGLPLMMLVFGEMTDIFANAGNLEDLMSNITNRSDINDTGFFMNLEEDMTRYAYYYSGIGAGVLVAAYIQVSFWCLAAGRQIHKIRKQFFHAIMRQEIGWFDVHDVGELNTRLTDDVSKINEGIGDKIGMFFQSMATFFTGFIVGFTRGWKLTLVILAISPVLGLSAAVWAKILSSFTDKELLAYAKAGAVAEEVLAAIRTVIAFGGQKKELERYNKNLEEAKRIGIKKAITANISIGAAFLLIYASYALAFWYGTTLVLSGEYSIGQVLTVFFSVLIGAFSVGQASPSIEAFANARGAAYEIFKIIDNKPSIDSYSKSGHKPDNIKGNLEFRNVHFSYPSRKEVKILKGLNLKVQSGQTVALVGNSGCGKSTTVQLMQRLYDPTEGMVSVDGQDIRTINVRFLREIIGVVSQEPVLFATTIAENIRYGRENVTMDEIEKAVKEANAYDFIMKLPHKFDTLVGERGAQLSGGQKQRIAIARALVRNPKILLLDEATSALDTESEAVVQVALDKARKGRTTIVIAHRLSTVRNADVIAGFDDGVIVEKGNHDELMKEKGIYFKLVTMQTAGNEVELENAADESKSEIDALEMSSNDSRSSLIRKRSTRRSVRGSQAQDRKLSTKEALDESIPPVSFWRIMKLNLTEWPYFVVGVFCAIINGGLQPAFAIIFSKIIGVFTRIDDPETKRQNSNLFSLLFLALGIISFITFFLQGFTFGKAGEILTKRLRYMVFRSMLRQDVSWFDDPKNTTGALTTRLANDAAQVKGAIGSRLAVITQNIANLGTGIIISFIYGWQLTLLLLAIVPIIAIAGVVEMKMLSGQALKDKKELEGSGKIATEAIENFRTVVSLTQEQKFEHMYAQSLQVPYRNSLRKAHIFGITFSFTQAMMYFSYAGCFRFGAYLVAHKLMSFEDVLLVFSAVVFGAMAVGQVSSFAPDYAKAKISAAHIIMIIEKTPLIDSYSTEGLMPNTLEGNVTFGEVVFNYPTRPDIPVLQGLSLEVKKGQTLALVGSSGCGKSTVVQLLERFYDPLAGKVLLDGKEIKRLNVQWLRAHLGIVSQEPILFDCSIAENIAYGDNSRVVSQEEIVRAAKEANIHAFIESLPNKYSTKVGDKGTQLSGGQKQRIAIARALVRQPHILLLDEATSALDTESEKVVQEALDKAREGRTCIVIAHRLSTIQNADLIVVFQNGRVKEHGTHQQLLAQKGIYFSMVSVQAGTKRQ

[8] = Renal clearance and renal impairment study of lonafarnib; assay type: in vivo, human
From the text: Lonafarnib is renally cleared <1% and no meaningful differences would be expected in subjects with renal impairment. […] Thus, lonafarnib is […].

[9] = in vivo
Description: as §1
Other sensitive CYP2C19 substrates should be monitored during concomitant administration with LNF. […] Extent of exposure was 6,200 ng·h/mL and the T1/2 was 5.57 hours. Trough LNF concentrations increased from Day 7 to Day 9 (AM). By Day 10 trough levels stabilized, indicating steady-state LNF levels were achieved over 5 days of consecutive dosing. […] There were no deaths, SAEs, or other significant AEs. All AEs were Grade 1 or 2.

[10] = biological target: CYP3A4 (Homo sapiens, UniProt P08684); test: Metabolism of lonafarnib
Chain of CYP3A4 (P08684 whole entry): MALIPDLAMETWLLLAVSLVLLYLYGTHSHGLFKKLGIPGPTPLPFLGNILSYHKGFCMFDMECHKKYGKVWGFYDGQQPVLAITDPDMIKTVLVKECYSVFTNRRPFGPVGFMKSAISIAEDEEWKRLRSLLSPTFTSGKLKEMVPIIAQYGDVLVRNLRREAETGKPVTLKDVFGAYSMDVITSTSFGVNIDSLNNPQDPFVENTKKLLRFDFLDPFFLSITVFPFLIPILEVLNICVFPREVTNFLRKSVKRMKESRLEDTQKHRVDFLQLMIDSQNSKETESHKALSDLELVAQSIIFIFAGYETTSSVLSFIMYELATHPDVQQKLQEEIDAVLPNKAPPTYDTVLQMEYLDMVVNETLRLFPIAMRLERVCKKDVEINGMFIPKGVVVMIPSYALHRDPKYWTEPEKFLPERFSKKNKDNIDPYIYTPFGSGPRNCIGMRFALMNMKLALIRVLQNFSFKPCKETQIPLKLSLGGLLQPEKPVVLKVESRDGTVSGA
From the text: Lonafarnib has not been studied in subjects with hepatic impairment.

[11] = tested on: CYP3A; test: In vitro and in vivo CYP inhibition studies (CYP3A)
From the text: The following medicines are contraindicated when used with lonafarnib and unless otherwise noted, the contraindication is based on the potential for lonafarnib to inhibit metabolism of the co-administered medicinal product, resulting in increased exposure to the co-administered medicinal product and risk of clinically significant adverse effects.
(§4) Concomitant administration of lonafarnib with sensitive CYP3A or CYP2C19 substrates and strong or moderate CYP3A4 inhibitors or inducers, including herbal supplements can increase exposure of the co-administered medicinal product or lonafarnib resulting in risk of clinically significant adverse events or decrease exposure of lonafarnib, which may impact efficacy. Medicinal products that are sensitive CYP3A or CYP2C19 substrates, strong or moderate CYP3A inhibitors, or strong or moderate CYP3A inducers should be discontinued. If treatment cannot safety be discontinued or an alternative drug is not available, lonafarnib should be stopped during the course of treatment unless the benefit outweighs the possible risks.

[12] = Multiple-dose lonafarnib PK (100 mg twice daily) in loperamide study; assay type: in vivo, human
[13] = Food-effect evaluation of single-dose LNF; assay type: in vivo, human
From the text: To evaluate the effect of a high-fat/high-calorie standard breakfast on the single-dose PK of LNF relative to a fasted state in healthy subjects (Group 2).
To evaluate the effect of a low-fat/low-calorie breakfast on the single-dose PK of LNF relative to a fasted state in healthy subjects (Group 2).
The effect of food (high-fat/high-calorie standard breakfast and low-fat/low-calorie breakfast) on the single-dose PK of LNF relative to the single-dose PK of LNF when administered under fasted conditions was evaluated.
• Period 1: Oral dose of LNF (75-mg capsule×1) on Day 1 (AM) under fed conditions (high-fat/high-calorie breakfast) • Period 2: Oral dose of LNF (75-mg capsule×1) on Day 4 (AM) under fed conditions (low-fat/low-calorie breakfast) • Period 3: Oral dose of LNF (75-mg capsule×1) on Day 7 (AM) under fasted conditions

[14] = biological target: T1, CYP2C19; test: In vitro and in vivo CYP inhibition studies (CYP2C19)
From the text: as §4

[15] = lonafarnib 75 mg twice daily co-administered
[16] = single-dose omeprazole with multiple-dose LNF
[17] = with multiple-dose LNF vs alone
[18] = co-administered with lonafarnib vs midazolam alone

SMILES: COc1ccc2[nH]c([S+]([O-])Cc3ncc(C)c(OC)c3C)nc2c1 (stereo not shown) [omeprazole]
- change in omeprazole CL/F ([1]; coadministration with LNF): decreased
- change in omeprazole Kel ([1]; coadministration with LNF): decreased
- change in omeprazole T1/2 ([1]; coadministration with LNF): increased
- omeprazole AUC increase [1, 15]: approximately 1.6 fold
- omeprazole Cmax increase [1, 15]: approximately 1.3 fold
- omeprazole Cmax increase ([1]; single-dose omeprazole 40 mg with multiple-dose LNF 75 mg twice daily 5 days): 44%
- omeprazole AUC0-t and AUC0-inf increase [1, 16]: approximately 2 fold
- omeprazole Tmax with vs without LNF [1, 16]: approximately the same time
- omeprazole AUC0-inf geometric mean ratio (CI) [1, 17]: 1.600 (1.32, 1.94)
- omeprazole AUC0-t geometric mean ratio (CI) [1, 17]: 1.602 (1.34, 1.91)
- omeprazole Cmax geometric mean ratio (CI) [1, 17]: 1.275 (1.01, 1.61)

SMILES: CN(C)C(=O)C(CCN1CCC(O)(c2ccc(Cl)cc2)CC1)(c1ccccc1)c1ccccc1 [loperamide]
- tolerability ([2]; healthy subjects, lonafarnib 100 mg twice daily and loperamide 2 mg): generally tolerated lonafarnib and loperamide well
- GI adverse events vs lonafarnib alone ([2]; loperamide coadministered with lonafarnib): fewer GI adverse events
- increase of loperamide exposures (upper limit) ([3]; coadministration of lonafarnib with loperamide): up to 4.6 fold
- loperamide Cmax increase ([3]; single-dose loperamide 2 mg after lonafarnib 100 mg twice daily 5 days vs loperamide alone): ~3 fold
- loperamide Kel compared with loperamide alone ([3]; with multiple-dose lonafarnib): similar

SMILES: Cc1ncc2n1-c1ccc(Cl)cc1C(c1ccccc1F)=NC2 [midazolam]
- midazolam AUC increase [4, 18]: approximately 7 fold
- midazolam Cmax increase [4, 18]: approximately 3 fold
- change in midazolam Cmax, AUC0-t and AUC0-inf ([4]; single-dose midazolam with multiple-dose lonafarnib): increased statistically significantly
- Tmax [5]: 0.5 h

SMILES: NC(=O)N1CCC(CC(=O)N2CCC([C@H]3c4ncc(Br)cc4CCc4cc(Cl)cc(Br)c43)CC2)CC1 [lonafarnib]
- lonafarnib AUC increase [6]: approximately 5 fold
- lonafarnib Cmax increase [6]: approximately 3.6 fold
- P-gp inhibition (classification) [7]: weak P-gp inhibitor
- fraction renally cleared ([8]; in vivo): < 1%
- lonafarnib exposure in renal impairment ([8]; subjects with severe renal impairment): exposures increase
- CYP2C19 inhibition in vivo (classification) [1]: moderate CYP2C19 inhibitor
- CYP2C19 inhibition in vivo (classification) ([1]; listed as LNF): direct/reversible inhibition of CYP2C19 in a moderate magnitude
- adverse event incidence [9]: More subjects experienced AEs taking LNF
- route of metabolism [10]: extensively metabolised via the cytochrome P450 enzyme system in the liver; also recorded: metabolized predominantly via CYP3A4 enzyme
- CYP3A inhibition (classification) [11]: potent CYP3A time-dependent and mechanism based inhibitor
- Cmax ([12]; human, in vivo, steady state): 964 ng/mL
- half-life ([12]; human, in vivo, steady state, read-out: lonafarnib T1/2 (converted)): 4.22 h
- lonafarnib extent of exposure ([12]; steady state): 6,940 ng·h/mL
- study day by which steady state was achieved ([12]; trough lonafarnib concentrations): ≤ 8 days
- LNF CL/F higher than fasted state ([13]; single 75 mg dose, 2 fed states vs fasted): 33-35%
- decrease of LNF exposure (AUC0-t and AUC0-inf) ([13]; single 75 mg dose, fed states vs fasted): 21-29%
- LNF Cmax decrease relative to fasted state ([13]; single 75 mg dose, high-fat/high-calorie breakfast): 55%
- LNF Cmax decrease relative to fasted state ([13]; single 75 mg dose, low-fat/low-calorie breakfast): 25%
- LNF Tmax relative to fasted state ([13]; single dose with high-fat/high-calorie or low-fat/low-calorie meal): delayed
- CYP2C19 inhibition (classification) [14]: moderate CYP2C19 inhibitor
